According to ChEMBL document CHEMBL1201862, “PubChem BioAssay data set” (2004):
The source made the active and inactive calls.

Tests used:
Cytochrome P450 2C19 = Cytochrome P450 2C19 (Homo sapiens, UniProt P33261); experiment: Cytochrome panel assay with activity outcomes. Panel member name: p450-cyp2c19 Compounds with AC50 equal or less than 10 uM are considered active; assay type: functional
[1] = target: T1, Rac GTPase-activating protein 1 (Homo sapiens, UniProt Q9H0H5); experiment: blockers of MgcRacGAP-driven Rac1 GTP hydrolysis – biochemical, ADP Hunter fluorescence, primary and confirmatory, confirmation (AID 624330); assay type: functional
T1 sequence (Q9H0H5 whole entry): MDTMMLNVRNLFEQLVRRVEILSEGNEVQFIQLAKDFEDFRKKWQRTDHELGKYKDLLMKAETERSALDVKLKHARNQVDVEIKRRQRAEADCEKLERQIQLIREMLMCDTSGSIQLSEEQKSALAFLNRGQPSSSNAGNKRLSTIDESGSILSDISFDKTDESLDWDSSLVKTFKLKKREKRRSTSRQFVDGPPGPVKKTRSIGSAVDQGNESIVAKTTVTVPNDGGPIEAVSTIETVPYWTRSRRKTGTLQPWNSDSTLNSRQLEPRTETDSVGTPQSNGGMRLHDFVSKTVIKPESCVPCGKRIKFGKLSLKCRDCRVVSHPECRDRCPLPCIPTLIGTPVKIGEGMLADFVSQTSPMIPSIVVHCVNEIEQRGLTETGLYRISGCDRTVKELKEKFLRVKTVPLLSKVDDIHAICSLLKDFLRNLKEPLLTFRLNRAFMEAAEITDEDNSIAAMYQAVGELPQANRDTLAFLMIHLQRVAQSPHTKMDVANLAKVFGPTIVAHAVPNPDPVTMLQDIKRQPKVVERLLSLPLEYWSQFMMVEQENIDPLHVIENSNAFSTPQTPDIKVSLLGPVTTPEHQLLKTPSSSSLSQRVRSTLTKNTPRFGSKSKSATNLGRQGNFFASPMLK

[2] = NIH3T3 cell viability loss – ATP luminescence, mouse fibroblasts, counter-screen, dose response (AID 2010); assay type: functional, cell-based;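 note: cells exposed to compound for about 90 hours before reading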
[3] = Trypanosoma cruzi growth suppression in host cells – NIH3T3 host cells, beta-gal luminescence, confirmation (AID 2044); assay type: functional, cell-based;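 note: intracellular parasites grown in NIH/3T3 mouse fibroblasts as host cells; luminescent beta-galactosidase reporter signal from transgenic T. cruzi replicating inside host cells; inhibitors lower the luminescence signal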
Cytochrome P450 3A4 = Cytochrome P450 3A4 (Homo sapiens, UniProt P08684);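 note: CYP3A4 tested as one member of a cytochrome P450 panel screen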
Cytochrome P450 2D6 = Cytochrome P450 2D6 (Homo sapiens, UniProt P10635);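 note: CYP2D6 member of a cytochrome P450 panel assay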
INS1 = experiment: INS-1E survival protection against cytokine death – cell-based, luminescence, retest, dose response (AID 449756); assay type: functional; details: Rattus norvegicus;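 note: cell death triggered by IL-1 beta plus TNF-alpha plus IFN-gamma mixture; protective hits raise ATP signal compared with cytokine alone wells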
[4] = target: T2, Corticotropin-releasing factor receptor 2/Corticotropin-releasing factor-binding protein (Homo sapiens, UniProt P24387+Q13324); experiment: activators of CRF receptor 2 with binding protein – uHTS hits, confirmation (AID 602473); assay type: functional; details: read-out: EC50_Mean
T2 sequence (Q13324 whole entry): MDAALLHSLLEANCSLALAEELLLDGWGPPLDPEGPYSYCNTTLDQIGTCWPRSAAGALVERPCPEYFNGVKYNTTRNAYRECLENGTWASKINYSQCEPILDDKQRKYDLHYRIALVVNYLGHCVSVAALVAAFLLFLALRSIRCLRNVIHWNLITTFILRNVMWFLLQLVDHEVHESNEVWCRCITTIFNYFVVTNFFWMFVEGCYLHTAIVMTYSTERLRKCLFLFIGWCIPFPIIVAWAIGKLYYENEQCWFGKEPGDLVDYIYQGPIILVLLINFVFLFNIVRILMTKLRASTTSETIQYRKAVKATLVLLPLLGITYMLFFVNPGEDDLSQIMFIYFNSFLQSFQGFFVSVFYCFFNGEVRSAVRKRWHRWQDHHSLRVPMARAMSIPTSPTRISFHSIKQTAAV
T2 sequence (P24387 whole entry): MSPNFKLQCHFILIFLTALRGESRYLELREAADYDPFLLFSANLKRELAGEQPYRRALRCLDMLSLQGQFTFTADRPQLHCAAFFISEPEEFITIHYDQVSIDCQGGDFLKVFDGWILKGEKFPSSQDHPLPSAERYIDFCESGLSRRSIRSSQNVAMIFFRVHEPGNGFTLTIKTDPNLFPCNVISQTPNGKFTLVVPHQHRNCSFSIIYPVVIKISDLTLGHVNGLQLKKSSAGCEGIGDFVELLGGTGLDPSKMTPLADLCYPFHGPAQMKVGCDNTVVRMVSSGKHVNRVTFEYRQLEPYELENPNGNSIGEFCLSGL

Chain of Cytochrome P450 3A4 (P08684 whole entry): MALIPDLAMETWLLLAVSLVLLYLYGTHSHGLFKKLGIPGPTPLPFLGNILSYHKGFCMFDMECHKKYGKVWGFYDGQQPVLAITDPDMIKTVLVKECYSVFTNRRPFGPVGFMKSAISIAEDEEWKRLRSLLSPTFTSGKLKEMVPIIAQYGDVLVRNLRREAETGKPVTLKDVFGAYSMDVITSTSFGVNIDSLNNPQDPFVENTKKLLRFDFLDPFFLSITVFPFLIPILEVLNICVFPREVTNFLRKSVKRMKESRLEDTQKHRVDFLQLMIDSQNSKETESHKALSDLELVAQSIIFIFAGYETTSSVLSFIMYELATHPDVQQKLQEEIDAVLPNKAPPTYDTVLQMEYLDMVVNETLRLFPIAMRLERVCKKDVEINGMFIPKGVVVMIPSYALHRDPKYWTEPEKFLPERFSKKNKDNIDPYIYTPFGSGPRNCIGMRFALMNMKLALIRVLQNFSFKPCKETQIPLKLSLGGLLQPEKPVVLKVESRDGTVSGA
Chain of Cytochrome P450 2D6 (P10635 whole entry): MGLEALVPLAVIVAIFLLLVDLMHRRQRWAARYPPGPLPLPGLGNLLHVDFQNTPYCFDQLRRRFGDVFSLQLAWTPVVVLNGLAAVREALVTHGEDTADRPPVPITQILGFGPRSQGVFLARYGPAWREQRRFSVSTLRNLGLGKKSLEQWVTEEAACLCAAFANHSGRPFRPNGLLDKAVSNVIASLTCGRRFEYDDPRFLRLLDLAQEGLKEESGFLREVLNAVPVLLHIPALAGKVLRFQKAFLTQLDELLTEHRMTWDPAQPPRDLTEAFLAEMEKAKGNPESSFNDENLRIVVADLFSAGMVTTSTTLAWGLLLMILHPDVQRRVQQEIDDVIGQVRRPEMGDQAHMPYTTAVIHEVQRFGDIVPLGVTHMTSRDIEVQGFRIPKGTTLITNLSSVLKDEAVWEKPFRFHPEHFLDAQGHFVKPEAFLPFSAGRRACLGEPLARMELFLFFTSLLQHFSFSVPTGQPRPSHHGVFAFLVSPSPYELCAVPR
Chain of Cytochrome P450 2C19 (P33261 whole entry): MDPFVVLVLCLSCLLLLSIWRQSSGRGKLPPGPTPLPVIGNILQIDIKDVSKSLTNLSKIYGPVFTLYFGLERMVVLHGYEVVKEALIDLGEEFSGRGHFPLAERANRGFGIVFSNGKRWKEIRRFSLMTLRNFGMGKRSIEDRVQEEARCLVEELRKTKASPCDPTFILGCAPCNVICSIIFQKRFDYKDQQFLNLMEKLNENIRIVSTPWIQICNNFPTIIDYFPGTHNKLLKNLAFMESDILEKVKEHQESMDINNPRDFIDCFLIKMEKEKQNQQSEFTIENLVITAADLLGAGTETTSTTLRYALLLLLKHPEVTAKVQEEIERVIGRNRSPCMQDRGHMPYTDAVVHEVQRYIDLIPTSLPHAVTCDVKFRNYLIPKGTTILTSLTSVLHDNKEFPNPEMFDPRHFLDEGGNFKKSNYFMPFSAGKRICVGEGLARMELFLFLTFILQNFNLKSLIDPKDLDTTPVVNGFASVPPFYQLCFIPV

Cc1ccc(N(C(=O)C(F)(F)F)C(C(=O)NC2CCCCC2)c2cccs2)cc1C (stereo not drawn)
AC50 (Cytochrome P450 2C19; read-out: AC50): 0.0355 µM (inconclusive)

COc1ccc(C(=O)CCC(=O)Nc2cc(Cl)c(O)c(Cl)c2)cc1
IC50 [1]: 118 µM (active)

C=CCN1C(=O)CS/C1=N/c1ccc(O)cc1
IC50 [1]: 25.8 µM (active)

CCOC(=O)C1=C(N)Oc2ccc3ccccc3c2C1c1cccnc1 (stereo not drawn)
EC50 [2]: > 60 µM (not active) | EC50 [3]: 0.243 µM (active)

CCCCOC(=O)Nc1nnc(C(C)C)s1
EC50 [2]: 12.9 µM (active) | EC50 [3]: 1.26 µM (active)

Clc1ccc(C2=CCC[C@H]3CC[C@@H]2N3)cn1
AC50 (Cytochrome P450 3A4): 39.8 µM (inconclusive)

C=CCNC(=O)c1csc(-c2ccccc2)n1
AC50 (Cytochrome P450 3A4): 28.2 µM (inconclusive)

O=C1N(Cc2cccc(Cl)c2)C[C@@H]2C[C@@H](c3c[nH]c4ccccc34)N3CCC[C@@]123
EC50 [2]: > 60 µM (inconclusive) | EC50 [3]: 2 µM (active)

Cc1cccc(C(=O)NCCCN(C)CCCNC(=O)c2cccc(C)c2)c1
EC50 [2]: > 60 µM (not active) | EC50 [3]: 0.894 µM (active)

Clc1ccc(CNc2ccc(N3CCN(Cc4ccccc4)CC3)cc2)cc1
IC50 [1]: 41.4 µM (active)

COc1cccc([C@@H]2Oc3ccc(OC)cc3/C(=N/O[C@@H](C)CN3CCCCc4nc(C)c(C)cc43)[C@@H]2O)c1
AC50 (Cytochrome P450 2D6): 3.16 µM (inconclusive) | AC50 (Cytochrome P450 2C19; read-out: AC50): 0.0126 µM (inconclusive)

O=[As](O)(O)c1ccc2nc3cc([As](=O)(O)O)ccc3nc2c1
AC50 (Cytochrome P450 2C19): inconclusive

COc1ccc(NC(=O)N2CC3(CCN(C(C)=O)CC3)C2)cc1
AC50 (Cytochrome P450 2D6): 12.6 µM (inconclusive)

Clc1ccc(-c2nc3ncccn3c2Nc2ccc3c(c2)OCCO3)cc1
AC50 (Cytochrome P450 2D6): 31.6 µM (inconclusive) | AC50 (Cytochrome P450 2C19; read-out: AC50): 7.08 µM (inconclusive)

c1csc(CNc2cc(-c3ccoc3)ncn2)c1
AC50 (Cytochrome P450 3A4): 25.1 µM (inconclusive)

C[C@@]1(C(=O)O)NCCc2cc(O)c(O)cc21
AC50 (Cytochrome P450 3A4): 31.6 µM (inconclusive)

Cn1c(=O)c2nc(S)n(Cc3ccccc3)c2n(C)c1=O
IC50 [1]: 19.5 µM (active)

Cc1ccc(C(=O)NC(=S)Nc2ccc(CN3CCCCC3)cc2)c(C)c1
EC50 [2]: 15.8 µM (active) | EC50 [3]: 0.98 µM (active)

CN1/C(=C\C(S)=Nc2ccccc2)C(C)(C)c2ccccc21
AC50 (INS1): 8.05 µM (active)

O=S(=O)(NCc1cc(-c2ccc(Cl)cc2)no1)c1ccc(Cl)cc1
AC50 (Cytochrome P450 3A4): 25.1 µM (inconclusive)

COc1ccc(NC2CCCN(C(=O)CCN3Cc4ccccc4C3=O)C2)cc1 (stereo not drawn)
IC50 [1]: 65.1 µM (active)

COc1ccccc1CN1CCCC2(CCNCC2)C1
AC50 (Cytochrome P450 2D6): 20 µM (inconclusive)

CCc1cccc2nc3c(c([Si](C)(C)C)c12)Cn1c-3cccc1=O
AC50 (Cytochrome P450 2D6): 39.8 µM (inconclusive) | AC50 (Cytochrome P450 2C19; read-out: AC50): 39.8 µM (inconclusive)

c1ccc(C2=NN[C@@H]3c4ccccc4-c4ccccc4N3C2)cc1
AC50 (Cytochrome P450 3A4): 3.16 µM (inconclusive)

CCc1nnc(NC(=O)C2Cc3ccccc3CN2S(=O)(=O)c2ccc(C)cc2)s1 (stereo not drawn)
AC50 (Cytochrome P450 2D6): 15.8 µM (inconclusive)

COc1ccc(-c2c[n+](-c3ccc(OC)cc3)c3n2-c2ccccc2CC3)cc1
AC50 (INS1): 0.786 µM (active)

Cc1c(Cl)cccc1NC(=O)CCCn1cnc([N+](=O)[O-])n1
EC50 [2]: > 60 µM (not active) | EC50 [3]: 0.131 µM (active)

CN1CCc2c(sc(/N=C/c3cccs3)c2C(N)=O)C1
EC50 [4]: > 53 µM (inactive)

CCCNC(=O)c1ccc(N2CCC3(CC2)CC(c2cccc(Br)c2)=NO3)c(NC(=O)c2ccccc2)c1
EC50 [2]: > 60 µM (not active) | EC50 [3]: 2.5 µM (active)

COc1cccc(C(=O)Oc2c(Br)cc(Br)cc2/C=N/NC(=O)c2cc(C)[nH]n2)c1
EC50 [2]: 8.01 µM (active) | AC50 (INS1): 3.11 µM (active) | EC50 [3]: 0.942 µM (active)

COc1cc(CN2CCC(C(=O)NC3CCCC3)CC2)ccc1O
IC50 [1]: 133 µM (active)

COCCNc1ncnc2ccc(-c3ccc(N(C)C)cc3)cc12
AC50 (Cytochrome P450 2D6): 20 µM (inconclusive) | AC50 (Cytochrome P450 2C19; read-out: AC50): 25.1 µM (inconclusive)

Brc1csc(/C=N\c2ccc3c(c2)OCCOCCOCCOCCO3)c1
IC50 [1]: 75.2 µM (active)

CSCCC(NC(=O)c1ccco1)C(=O)OC(C)C(=O)NC(=O)NC1CCCCC1 (stereo not drawn)
EC50 [4]: 0.832 µM (active)

CCOC(=O)C1CCN(Cc2cccc(Oc3ccccc3)c2)CC1
IC50 [1]: 342 µM (active)

CCc1cc2c(nc1CC)CCN(CC/C(C)=N/O[C@@H](C)CN1CCCc3nc(C)c(C)cc31)C2
AC50 (Cytochrome P450 3A4): 3.16 µM (inconclusive)

CC(C)(C)c1ccc(C(=O)NCCC(=O)NCc2ccco2)cc1
AC50 (Cytochrome P450 2D6): 22.4 µM (inconclusive) | AC50 (Cytochrome P450 2C19; read-out: AC50): 7.94 µM (inconclusive)

C/C(Cn1nnc([N+](=O)[O-])n1)=N\NC(=O)c1ccccc1Cl
EC50 [2]: > 60 µM (not active) | AC50 (INS1): 10.5 µM (active) | EC50 [3]: 0.47 µM (active)

FC(F)(F)c1n[nH]c(SCc2ccc(Cl)cc2)n1
AC50 (Cytochrome P450 2C19; read-out: AC50): 2.51 µM (inconclusive)

C=CCN1C(c2cccc(C(F)(F)F)c2)=CS/C1=C(/C#N)c1nnc(N2CCOCC2)n1-c1ccccc1
EC50 [4]: > 53 µM (inactive)

COc1ccccc1/C=N/OCc1cc(C(C)=O)ccc1OC
AC50 (INS1): 44.6 µM (active)

COc1ccccc1C1NC=C([N+](=O)[O-])C=C1[N+](=O)[O-] (stereo not drawn)
EC50 [2]: > 60 µM (not active) | EC50 [3]: 1.73 µM (active)

Cc1ccc(SCCCn2cnc3ccccc3c2=O)cc1
AC50 (Cytochrome P450 2D6): 1 µM (inconclusive)

Cc1cc(NC(=O)c2cccc(F)c2)no1
AC50 (Cytochrome P450 2C19; read-out: AC50): 31.6 µM (inconclusive)

O=C(Oc1ccc2c(c1)OCO2)c1ccncc1
IC50 [1]: 50.5 µM (active)

Cc1ccc(S(=O)(=O)/C=C\C#N)cc1
AC50 (Cytochrome P450 3A4): 39.8 µM (inconclusive)

Ic1ccc(N2CCN(Cc3c[nH]c4ncccc34)CC2)cc1
AC50 (Cytochrome P450 3A4): 39.8 µM (inconclusive)

CCNc1ncc2nc(CCc3ccccc3)c(=O)n(C[C@H]3CCCO3)c2n1
AC50 (Cytochrome P450 2C19; read-out: AC50): 39.8 µM (inconclusive)

O=C1/C(=C\c2ccccn2)SC(=S)N1Nc1ncc(C(F)(F)F)cc1Cl
AC50 (Cytochrome P450 2D6): 17.8 µM (inconclusive)

Cc1ccc(S(=O)(=O)NCCn2cnc([N+](=O)[O-])n2)cc1
EC50 [2]: > 60 µM (not active) | EC50 [3]: 0.116 µM (active)

c1ccc(Nc2nc(-c3ccncc3)cs2)cc1
EC50 [2]: > 60 µM (not active) | EC50 [3]: 0.544 µM (active)

Cc1ccc(C(=O)NC(=S)NNC(=O)c2ccc([N+](=O)[O-])cc2)cc1
EC50 [4]: 4.2 µM (active)

C#CCCCO/N=C1/[C@H]2O[C@@H]2[C@@H](O)[C@H]2[C@H]1CCn1c(=O)n([C@@H](CC)c3ccccc3)c(=O)n12
AC50 (Cytochrome P450 3A4): 3.98 µM (inconclusive)

CCCNC1=NC(=O)N(C)C(=O)/C1=N/O
AC50 (Cytochrome P450 2D6): 39.8 µM (inconclusive) | AC50 (Cytochrome P450 2C19; read-out: AC50): 28.2 µM (inconclusive)

CCOC(=O)C1CCN(C(=O)C2CCN(S(=O)(=O)N3CCCC3)CC2)CC1
AC50 (Cytochrome P450 2C19): inconclusive

CCC(=O)Nc1ccc2c(c1)C(=O)c1ccccc1C2=O
AC50 (Cytochrome P450 2C19; read-out: AC50): 7.94 µM (inconclusive)

N#C/C(=C(/O)COC(=O)c1ccccc1O)c1nc2ccccc2s1
EC50 [4]: > 53 µM (inactive)

CC(C)(CNc1ccc(S(=O)(=O)C(F)(F)F)cc1[N+](=O)[O-])N1CCOCC1
EC50 [2]: 4.83 µM (active) | EC50 [3]: 2.42 µM (active)

CCNc1ncc2nc(-c3cc(F)cc(F)c3)c(=O)n(-c3ccccc3)c2n1
AC50 (Cytochrome P450 3A4): 10 µM (inconclusive)

COc1ccc(-c2cc(C(=O)Nc3nc4c(C)cccc4s3)c3ccccc3n2)cc1OC
AC50 (Cytochrome P450 3A4): 11.2 µM (inconclusive)

CCOC(=O)C1(CC2CCCCO2)CCN(Cc2cc3ccccc3[nH]2)CC1 (stereo not drawn)
EC50 [4]: 7.87 µM (active)

CC1(C(=O)OCC(=O)N2c3ccccc3Sc3ccccc32)CC1(Cl)Cl (stereo not drawn)
AC50 (INS1): 37.4 µM (active)
